Here are results for eight molecules from patent US9359592B2, “Method for differentiation into retinal cells from stem cells” (SNU R&DB Foundation, priority 2009, dated 2016).

Assay [1] relates to retinal progenitor cells differentiated from hESCs (differentiation into photoreceptor cells). As to the kind of experiment: Immunochemical staining: positive rates of retinal cell markers after differentiation with substitutes for Wnt3a and Shh. Particulars: mean, sample size = 3. It counts as cell-based, human. The method, then:
The eye field precursors (floating aggregates) were cultured in 8-well poly-D-lysine/laminin-coated slides (BD Biosciences, Bedford, Mass.) under the same conditions that were used for differentiation into the retinal progenitor cells, the neural retinal progenitor cells, the photoreceptor cell precursors and the photoreceptor cells.
After being blocked for 90 min, the slides in each differentiation step were incubated overnight at 4° C. with the following antibodies specific for cells of each differentiation step: rabbit-Blue-opsin (1:500, Chemicon), sheep-Chx10 (1:100, Chemicon), rabbit-Crx (1:200, Santa Cruz Biotechnology, Santa Cruz, Calif., USA), rabbit-GFAP (1:200, Invitrogen), mouse-human specific mitochondria (1:50, Chemicon), rabbit-human specific mitochondria (1:200, Chemicon), mouse-Islet1 (1:10, Developmental Studies Hydroma Bank, DSHB; Iowa City, Iowa, USA), mouse-Ki67 (1:100, Vector Laboratories, Peterborough, England), mouse-Mitf (1:1,000, abcam, Cambridge, Mass., USA), mouse-nestin (1:250, BD Sciences), rabbit-neurofilament-200 (1:1,000, Sigma-Aldrich), rabbit-Otx2 (1:100, abcam), rabbit-Pax2 (1:250, abcam), mouse-Pax6 (1:2, DSHB), mouse-peripherin2 (1:500, GenScript, Piscataway, N.J., USA), rabbit-Rax (1:250, abcam), rabbit-recoverin (1:1,000, Chemicon), retinal pigment epithelium 65 (RPE65, 1:100, Chemicon), rabbit-rhodopsin (1:500, Sigma-Aldrich), mouse-rhodopsin (1:500, Ret-P1, Lab Vision, Fremont, Calif., USA), mouse-rhodopsin (1:2,000, Ret-P1, Sigma-Aldrich), mouse-rom1 (1:50, ABR-Affinity Bioreagents, Golden, Colo., USA), rabbit-PDE6 beta (1:100, abcam), rabbit-phosducin (1:500, Santa Cruz Biotechnology), mouse-PKC-alpha (1:500, Sigma-Aldrich), mouse-Prox1 (1:2,000, Chemicon), mouse-Sox2 (1:250, R&D Systems), rabbit-synaptophysin (1:2,000, Santa Cruz Biotechnology), and rabbit-ZO-1 (1:100, Zymed-Invitrogen).
The cells cultured on the slides in each step were washed three times for 5 min with PBS and incubated at room temperature for 2 hrs with species-specific secondary antibody conjugated with Cy3 (1:800, Jackson Immunoresearch Laboratory) or Alexa488 (1:500, Invitrogen). A standard material suitable for the primary and the secondary antibody was used to examine non-specific staining or interaction between the antibodies. Afterwards, the cells were washed three times for 5 min with PBS, counterstained with DAPI (4′,6-diamidino-2 phenylindole) and mounted in Vectashield (Vector Laboratories), followed by visualization under an epifluorescence microscope (Nikon Eclipse, E800, Tokyo, Japan) and a confocal microscope (Leica, Leica Microsystems Inc, Bannockburn, Ill., USA or Zeiss LSM510, Carl Zeiss, Inc, Thornwood, N.Y., USA).
500 cells were counted from 20 microscopic fields randomly selected at 200 magnification and evaluated for positive responses to each antibody. Positive responses to antibodies were determined after at least three evaluations. […] All data were represented as mean standard error of the mean (S.E.M) with a statistical significance of p<0.05.

For assay [2], the system named is hESC-derived retinal progenitor cells / neural retinal progenitor cells. As to the kind of experiment: Immunochemical staining: marker positive rates during stepwise differentiation (Examples 4 to 6). It counts as cell-based, human. As to conditions: 50 ng/ml Wnt3a for 5 days (day 18); 12.8% before addition. Here is the method:
The retinal progenitor cells generated in Example 3 were cultured in a medium for inducing differentiation into neural retinal progenitor cells [DMEM/F12 (Invitrogen), 1 mM L-glutamine (Invitrogen), 0.1 mM nonessential amino acids (Invitrogen), 0.1 mM mercaptoethanol (Sigma-Aldrich), 1% B27 supplement (Invitrogen), 1% N2 supplement (Invitrogen), 10 ng/ml noggin, 10 ng/ml IGF-1, 5 ng/ml FGF2, 50 ng/ml recombinant Wnt3a (R&D Systems)] supplied thereto for 5 days, thus giving neural retinal progenitor cells (FIG. 1).
The neural retinal progenitor cells generated in Example 4 were induced to differentiate into photoreceptor cell precursors by supplying a medium [DMEM/F12 (Invitrogen), 1 mM L-glutamine (Invitrogen), 0.1 mM nonessential amino acids (Invitrogen), 0.1 mM mercaptoethanol (Sigma-Aldrich), 1% B27 supplement (Invitrogen), 1% N2 supplement (Invitrogen), 10 ng/ml IGF-1, 50 ng/ml Wnt3a, and 250 ng/ml recombinant Shh (Sonic Hedgehog amino terminal peptide, Shh, R&D Systems)] for 3 days. Noggin and FGF2, both used in the previous step, were excluded from the medium (FIG. 1).
The differentiation of the cells obtained in Examples 3 to 6 was examined using an immunochemical staining method as follows. […]

Consider `O=C1NC(=O)C(c2ccccc2[N+](=O)[O-])=C1Nc1ccc(O)c(Cl)c1` [SB415286], for which, in assay [1] (Wnt3a substitute at 30 uM), the “Positive rate of Crx” value was 53.7%, the “Positive rate of Ki67” value amounted to 13.3%, the “Positive rate of Pax6” value is given as 89.1% and the “Positive rate of Rom” value is on record as 59.5%. Moreover, in assay [1] (Wnt3a substitute at 30 uM), the “Positive rate of b-opsin” value is 53.7%, the “Positive rate of peripherin2” value worked out at 9.1%, the “Positive rate of recoverin” value is reported as 70.0% and the “Positive rate of rhodopsin” value is given as 69.3%.

With “Norrin: recombinant Norrin (R&D Systems), activator of the Wnt pathway that binds to Frizzled4 receptor”, in assay [1] (Wnt3a substitute at 50 ng/ml), the “Positive rate of Crx” value was 39.3%, the “Positive rate of Ki67” value came to 42.2%, the “Positive rate of Rom” value turned out to be 69.5% and the “Positive rate of b-opsin” value was 71.1%. Besides, in assay [1] (Wnt3a substitute at 50 ng/ml), the “Positive rate of peripherin2” value was 24.9%, the “Positive rate of recoverin” value is 85.0% and the “Positive rate of rhodopsin” value amounted to 82.9%.

With `[Cl-].[Li+]` [LiCl], in assay [1] (Wnt3a substitute at 2.5 mM), the “Positive rate of recoverin” value came to 64.1% and the “Positive rate of rhodopsin” value is reported as 56.2%. In assay [1] (Wnt3a substitute at 5 mM), the “Positive rate of Crx” value was 5.0%, the “Positive rate of Ki67” value was found to be 33.3%, the “Positive rate of peripherin2” value came to 1.5% and the “Positive rate of recoverin” value is given as 78.9%. In addition, the “Positive rate of rhodopsin” value in assay [1] (Wnt3a substitute at 5 mM) came to 68.5%.

`O=C1Nc2cc(Br)ccc2/C1=C1/Nc2ccccc2/C1=N\O` [BIO, 6-bromoindirubin-3′ oxime]: in assay [1] (Wnt3a substitute at 2 uM), the “Positive rate of Crx” value worked out at 65.8%, the “Positive rate of Ki67” value is listed as 17.2%, the “Positive rate of Pax6” value worked out at 92.8% and the “Positive rate of Rom” value stood at 60.3%. Further, in assay [1] (Wnt3a substitute at 2 uM), the “Positive rate of b-opsin” value stood at 77.5%, the “Positive rate of peripherin2” value came to 33.9%, the “Positive rate of recoverin” value stood at 77.1% and the “Positive rate of rhodopsin” value is given as 71.5%.

B1: Wnt3a: recombinant Wnt3a (R&D Systems), Wnt signaling pathway activator (protein, UniProt P56704 19-352, looked up)
Protein Wnt-3a: SYPIWWSLAVGPQYSSLGSQPILCASIPGLVPKQLRFCRNYVEIMPSVAEGIKIGIQECQHQFRGRRWNCTTVHDSLAIFGPVLDKATRESAFVHAIASAGVAFAVTRSCAEGTAAICGCSSRHQGSPGKGWKWGGCSEDIEFGGMVSREFADARENRPDARSAMNRHNNEAGRQAIASHMHLKCKCHGLSGSCEVKTCWWSQPDFRAIGDFLKDKYDSASEMVVEKHRESRGWVETLRPRYTYFKVPTERDLVYYEASPNFCEPNPETGSFGTRDRTCNVSSHGIDGCDLLCCGRGHNARAERRREKCRCVFHWCCYVSCQECTRVYDVHTCK
On to B1, for which the “Positive rate of the photoreceptor cell precursor marker Crx after Wnt3a addition” value in assay [2] came out at 80.1%.

B2: Wntl: recombinant Wnt1 (PeproTech), Wnt signaling pathway activator used instead of Wnt3a (protein, UniProt P04628 28-370, looked up)
Proto-oncogene Wnt-1: ANSSGRWWGIVNVASSTNLLTDSKSLQLVLEPSLQLLSRKQRRLIRQNPGILHSVSGGLQSAVRECKWQFRNRRWNCPTAPGPHLFGKIVNRGCRETAFIFAITSAGVTHSVARSCSEGSIESCTCDYRRRGPGGPDWHWGGCSDNIDFGRLFGREFVDSGEKGRDLRFLMNLHNNEAGRTTVFSEMRQECKCHGMSGSCTVRTCWMRLPTLRAVGDVLRDRFDGASRVLYGNRGSNRASRAELLRLEPEDPAHKPPSPHDLVYFEKSPNFCTYSGRLGTAGTAGRACNSSSPALDGCELLCCGRGHRTRTQRVTERCNCTFHWCCHVSCRNCTHTRVLHECL
On to B2, for which, in assay [1] (Wnt3a substitute at 50 ng/ml), the “Positive rate of Crx” value is given as 60.3%, the “Positive rate of Ki67” value is reported as 23.8%, the “Positive rate of Rom” value is reported as 55.9% and the “Positive rate of b-opsin” value came to 61.6%. For the same molecule, in assay [1] (Wnt3a substitute at 50 ng/ml), the “Positive rate of peripherin2” value is recorded as 3.8%, the “Positive rate of recoverin” value was 70.9% and the “Positive rate of rhodopsin” value stood at 66.2%.

B3: Wntll: recombinant Wnt11 (R&D Systems), Wnt signaling pathway activator used instead of Wnt3a (protein, UniProt O96014 25-354, looked up)
Protein Wnt-11: IKWLALSKTPSALALNQTQHCKQLEGLVSAQVQLCRSNLELMHTVVHAAREVMKACRRAFADMRWNCSSIELAPNYLLDLERGTRESAFVYALSAAAISHAIARACTSGDLPGCSCGPVPGEPPGPGNRWGGCADNLSYGLLMGAKFSDAPMKVKKTGSQANKLMRLHNSEVGRQALRASLEMKCKCHGVSGSCSIRTCWKGLQELQDVAADLKTRYLSATKVVHRPMGTRKHLVPKDLDIRPVKDSELVYLQSSPDFCMKNEKVGSHGTQDRQCNKTSNGSDSCDLMCCGRGYNPYTDRVVERCHCKYHWCCYVTCRRCERTVERYVCK
Take B3: in assay [1] (Wnt3a substitute at 50 ng/ml), the “Positive rate of Crx” value is 65.9%, the “Positive rate of Ki67” value is given as 40.1%, the “Positive rate of Rom” value came to 50.2% and the “Positive rate of b-opsin” value was 30.6%. In assay [1] (Wnt3a substitute at 50 ng/ml), the “Positive rate of peripherin2” value is 0.5%, the “Positive rate of recoverin” value came out at 65.3% and the “Positive rate of rhodopsin” value came to 51.8%. Moreover, in assay [1] (Wnt3a substitute at 100 ng/ml), the “Positive rate of peripherin2” value is listed as 10.7%, the “Positive rate of recoverin” value is given as 61.8% and the “Positive rate of rhodopsin” value amounted to 59.1%.

B4: Wnt5A: recombinant Wnt5A (R&D Systems), Wnt signaling pathway activator used instead of Wnt3a (protein, UniProt P41221 62-380, looked up)
Protein Wnt-5a: IIGAQPLCSQLAGLSQGQKKLCHLYQDHMQYIGEGAKTGIKECQYQFRHRRWNCSTVDNTSVFGRVMQIGSRETAFTYAVSAAGVVNAMSRACREGELSTCGCSRAARPKDLPRDWLWGGCGDNIDYGYRFAKEFVDARERERIHAKGSYESARILMNLHNNEAGRRTVYNLADVACKCHGVSGSCSLKTCWLQLADFRKVGDALKEKYDSAAAMRLNSRGKLVQVNSRFNSPTTQDLVYIDPSPDYCVRNESTGSLGTQGRLCNKTSEGMDGCELMCCGRGYDQFKTVQTERCHCKFHWCCYVKCKKCTEIVDQFVCK
For the molecule B4, in assay [1] (Wnt3a substitute at 50 ng/ml), the “Positive rate of Crx” value is on record as 67.3%, the “Positive rate of Ki67” value stood at 41.3%, the “Positive rate of Rom” value was 58.8% and the “Positive rate of b-opsin” value worked out at 55.0%. Besides, in assay [1] (Wnt3a substitute at 50 ng/ml), the “Positive rate of peripherin2” value was determined as 20.7%, the “Positive rate of recoverin” value came out at 61.0% and the “Positive rate of rhodopsin” value is reported as 59.5%. Moreover, in assay [1] (Wnt3a substitute at 100 ng/ml), the “Positive rate of peripherin2” value was 14.2%, the “Positive rate of recoverin” value worked out at 61.6% and the “Positive rate of rhodopsin” value is listed as 56.1%.
